Activity calls are given as the source filed them. The calls are words filed in the database; no cut-off is given here.
Columns and labels:
SK-MEL-5 = assay: Cytotoxicity against human SK-MEL-5 cells assessed as growth inhibition at 10 uM after 24 hrs by SRB assay; format: functional
HOP-62 = assay: Cytotoxicity against human HOP62 cells assessed as growth inhibition at 10 uM after 24 hrs by SRB assay; format: functional
NCI-H460 = assay: Cytotoxicity against human NCI-H460 cells assessed as growth inhibition at 10 uM after 24 hrs by SRB assay; format: functional; conditions: NCI-H460, 24 h, read-out: GI
NCI-H522 = assay: Cytotoxicity against human NCI-H522 cells assessed as growth inhibition at 10 uM after 24 hrs by SRB assay; format: functional
NCI-H226 = assay: Cytotoxicity against human NCI-H226 cells assessed as growth inhibition at 10 uM after 24 hrs by SRB assay; format: functional
K562 = assay: Cytotoxicity against human K562 cells assessed as growth inhibition at 10 uM after 24 hrs by SRB assay; format: functional
CAKI-1 = assay: Cytotoxicity against human CAKI-1 cells assessed as growth inhibition at 10 uM after 24 hrs by SRB assay; format: functional; conditions: CAKI-1, 24 h, read-out: GI
SK-MEL-28 = assay: Cytotoxicity against human SK-MEL-28 cells assessed as growth inhibition at 10 uM after 24 hrs by SRB assay; format: functional
SR = assay: Cytotoxicity against human SR cells assessed as growth inhibition at 10 uM after 24 hrs by SRB assay; format: functional
T47D = assay: Cytotoxicity against human T47D cells assessed as growth inhibition at 10 uM after 24 hrs by SRB assay; format: functional; conditions: read-out: GI
NCI/ADR-RES = assay: Cytotoxicity against human NCI/ADR-RES cells assessed as growth inhibition at 10 uM after 24 hrs by SRB assay; format: functional; conditions: read-out: GI
MCF7 = assay: Cytotoxicity against human MCF7 cells assessed as growth inhibition at 10 uM after 24 hrs by SRB assay; format: functional; conditions: MCF7, 24 h, read-out: GI
SNB-75 = assay: Cytotoxicity against human SNB75 cells assessed as growth inhibition at 10 uM after 24 hrs by SRB assay; format: functional; conditions: SNB-75, 24 h, read-out: GI
Malme-3M = assay: Cytotoxicity against human MALME-3M cells assessed as growth inhibition at 10 uM after 24 hrs by SRB assay; format: functional
TK-10 = assay: Cytotoxicity against human TK10 cells assessed as growth inhibition at 10 uM after 24 hrs by SRB assay; format: functional
MDA-MB-435 = assay: Cytotoxicity against human MDA-MB-435 cells assessed as growth inhibition at 10 uM after 24 hrs by SRB assay; format: functional
PC-3 = assay: Cytotoxicity against human PC3 cells assessed as growth inhibition at 10 uM after 24 hrs by SRB assay; format: functional; conditions: PC-3, 24 h, read-out: GI
U-251 = assay: Cytotoxicity against human U251 cells assessed as growth inhibition at 10 uM after 24 hrs by SRB assay; format: functional
RXF 393 = assay: Cytotoxicity against human RXF393 cells assessed as growth inhibition at 10 uM after 24 hrs by SRB assay; format: functional; conditions: RXF 393, 24 h, read-out: GI
[1] = Cytotoxicity against human Hs578T cells assessed as growth inhibition at 10 uM after 24 hrs by SRB assay; format: functional; conditions: Hs-578T, read-out: GI
Ovis aries = species: Ovis aries; assay: Inhibition of sheep tubulin polymerization at 100 uM by fluorescence assay
HOP-92 = assay: Cytotoxicity against human HOP92 cells assessed as growth inhibition at 10 uM after 24 hrs by SRB assay; format: functional
786-0 = assay: Cytotoxicity against human 786-0 cells assessed as growth inhibition at 10 uM after 24 hrs by SRB assay; format: functional
HCT-116 = assay: Cytotoxicity against human HCT116 cells assessed as growth inhibition at 10 uM after 24 hrs by SRB assay; format: functional
UACC-257 = assay: Cytotoxicity against human UACC257 cells assessed as growth inhibition at 10 uM after 24 hrs by SRB assay; format: functional
ACHN = assay: Cytotoxicity against human ACHN cells assessed as growth inhibition at 10 uM after 24 hrs by SRB assay; format: functional; conditions: read-out: GI
MDA-MB-231 = assay: Cytotoxicity against human MDA-MB-231 cells assessed as growth inhibition at 10 uM after 24 hrs by SRB assay; format: functional; conditions: MDA-MB-231, 24 h, read-out: GI
OVCAR-8 = assay: Cytotoxicity against human OVCAR8 cells assessed as growth inhibition at 10 uM after 24 hrs by SRB assay; format: functional; conditions: OVCAR-8, 24 h, read-out: GI
OVCAR-4 = assay: Cytotoxicity against human OVCAR4 cells assessed as growth inhibition at 10 uM after 24 hrs by SRB assay; format: functional; conditions: OVCAR-4, 24 h, read-out: GI
SF-539 = assay: Cytotoxicity against human SF539 cells assessed as growth inhibition at 10 uM after 24 hrs by SRB assay; format: functional
SK-OV-3 = assay: Cytotoxicity against human SKOV3 cells assessed as growth inhibition at 10 uM after 24 hrs by SRB assay; format: functional
CCRF-CEM = assay: Cytotoxicity against human CCRF-CEM cells assessed as growth inhibition at 10 uM after 24 hrs by SRB assay; format: functional
A549 = assay: Cytotoxicity against human A549 cells assessed as growth inhibition at 10 uM after 24 hrs by SRB assay; format: functional; conditions: A549, 24 h, read-out: GI
UACC-62 = assay: Cytotoxicity against human UACC62 cells assessed as growth inhibition at 10 uM after 24 hrs by SRB assay; format: functional
SF-295 = assay: Cytotoxicity against human SF295 cells assessed as growth inhibition at 10 uM after 24 hrs by SRB assay; format: functional; conditions: SF-295, 24 h, read-out: GI
RPMI-8226 = assay: Cytotoxicity against human RPMI8226 cells assessed as growth inhibition at 10 uM after 24 hrs by SRB assay; format: functional
HL-60(TB) = assay: Cytotoxicity against human HL-60(TB) cells assessed as growth inhibition at 10 uM after 24 hrs by SRB assay; format: functional
OVCAR-3 = assay: Cytotoxicity against human OVCAR3 cells assessed as growth inhibition at 10 uM after 24 hrs by SRB assay; format: functional; conditions: OVCAR-3, 24 h, read-out: GI

| Structure (SMILES) | inhibition of growth at 10 µM (NCI-H460) [%] | inhibition of growth at 10 µM (CAKI-1) [%] | inhibition of growth at 10 µM (T47D) [%] | inhibition of growth at 10 µM (NCI/ADR-RES) [%] | inhibition of growth at 10 µM (MCF7) [%] | inhibition of growth at 10 µM (SNB-75) [%] | growth inhibition (GI) (TK-10) | growth inhibition (GI) (MDA-MB-435) | inhibition of growth at 10 µM (PC-3) [%] | growth inhibition (GI) (U-251) | inhibition of growth at 10 µM (RXF 393) [%] | inhibition of growth at 10 µM [1] [%] | inhibition (Ovis aries) | growth inhibition (GI) (HOP-92) | growth inhibition (GI) (HCT-116) | inhibition of growth at 10 µM (ACHN) [%] | inhibition of growth at 10 µM (MDA-MB-231) [%] | inhibition of growth at 10 µM (OVCAR-8) [%] | inhibition of growth at 10 µM (OVCAR-4) [%] | growth inhibition (GI) (SF-539) | other results |
| --- | --- | --- | --- | --- | --- | --- | --- | --- | --- | --- | --- | --- | --- | --- | --- | --- | --- | --- | --- | --- | --- |
| COc1nc(OC)nc(-c2cc(C(=O)c3ccc(Br)cc3)n3c2ccc2ccccc23)n1 | 68 | 33 | 31 | 43 | 44 | 69 | inactive | inactive | 37 | inactive | 61 | 56 | inactive | inactive | inactive | 22 | 80 | 50 | 30 | inactive | growth inhibition (GI) (SK-MEL-5): inactive; inhibition of growth at 10 µM (HOP-62; HOP-62, 24 h, read-out: GI): 79%; growth inhibition (GI) (NCI-H522): inactive; inhibition of growth at 10 µM (NCI-H226; NCI-H226, 24 h, read-out: GI): 35%; growth inhibition (GI) (K562): inactive; inhibition of growth at 10 µM (SK-MEL-28; SK-MEL-28, 24 h, read-out: GI): 43%; growth inhibition (GI) (SR): inactive; inhibition of growth at 10 µM (Malme-3M; read-out: GI): 58%; inhibition of growth at 10 µM (786-0; 786-0, 24 h, read-out: GI): 45%; inhibition of growth at 10 µM (UACC-257; UACC-257, 24 h, read-out: GI): 30%; growth inhibition (GI) (SK-OV-3): inactive; growth inhibition (GI) (CCRF-CEM): inactive; inhibition of growth at 10 µM (A549): 49%; growth inhibition (GI) (UACC-62): inactive; inhibition of growth at 10 µM (SF-295): 59%; growth inhibition (GI) (RPMI-8226): inactive; growth inhibition (GI) (HL-60(TB)): inactive; inhibition of growth at 10 µM (OVCAR-3): 31% |
| COc1nc(OC)nc(-c2cc(C(=O)c3cc(OC)c(OC)c(OC)c3)n3c(-c4ccccc4)cccc23)n1 | 14 | 43 | 32 | 38 | 22 | 23 | inactive | inactive | 37 | inactive | 15 | 14 | inactive | inactive | inactive | 30 | 23 | 41 | 18 | inactive | inhibition of growth at 10 µM (SK-MEL-5; SK-MEL-5, 24 h, read-out: GI): 67%; growth inhibition (GI) (HOP-62): inactive; inhibition of growth at 10 µM (NCI-H522; NCI-H522, 24 h, read-out: GI): 11%; growth inhibition (GI) (NCI-H226): inactive; inhibition of growth at 10 µM (K562; K562, 24 h, read-out: GI): 29%; growth inhibition (GI) (SK-MEL-28): inactive; inhibition of growth at 10 µM (SR; read-out: GI): 29%; growth inhibition (GI) (Malme-3M): inactive; growth inhibition (GI) (786-0): inactive; growth inhibition (GI) (UACC-257): inactive; growth inhibition (GI) (SK-OV-3): inactive; inhibition of growth at 10 µM (CCRF-CEM; read-out: GI): 62%; inhibition of growth at 10 µM (A549): 28%; inhibition of growth at 10 µM (UACC-62; UACC-62, 24 h, read-out: GI): 39%; inhibition of growth at 10 µM (SF-295): 40%; inhibition of growth at 10 µM (RPMI-8226; RPMI-8226, 24 h, read-out: GI): 52%; growth inhibition (GI) (HL-60(TB)): inactive; inhibition of growth at 10 µM (OVCAR-3): 28% |
